From patent publication US9434711B2 (Janssen Pharmaceutica, NV, priority 2007, dated 2016)
Values belong to the compound of their own block, whether it stands above or below them.

Target: canine TRPM8 (Canis lupus familiaris, UniProt Q1A7N1)
Test: In Vitro Canine TRPM8 Functional Assay (Ca2+ fluorescence, icilin activation)
Format: cell-based
Conditions: HEK293 cells stably expressing canine TRPM8, icilin activation; for inhibition at 0.2 µM: 0.2 μM compound, read-out: % Inh @ 0.2; for IC50: average of two or more determinations, read-out: IC50
Outline: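 Readout is the intracellular Ca2+ fluorescence change, measured by FLIPR or FDSS, in HEK293 cells stably expressing canine TRPM8. Potency (EC50 or IC50) is fitted from eight concentrations averaged over quadruplicate wells.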

Sequence of canine TRPM8 (Q1A7N1 1-1104): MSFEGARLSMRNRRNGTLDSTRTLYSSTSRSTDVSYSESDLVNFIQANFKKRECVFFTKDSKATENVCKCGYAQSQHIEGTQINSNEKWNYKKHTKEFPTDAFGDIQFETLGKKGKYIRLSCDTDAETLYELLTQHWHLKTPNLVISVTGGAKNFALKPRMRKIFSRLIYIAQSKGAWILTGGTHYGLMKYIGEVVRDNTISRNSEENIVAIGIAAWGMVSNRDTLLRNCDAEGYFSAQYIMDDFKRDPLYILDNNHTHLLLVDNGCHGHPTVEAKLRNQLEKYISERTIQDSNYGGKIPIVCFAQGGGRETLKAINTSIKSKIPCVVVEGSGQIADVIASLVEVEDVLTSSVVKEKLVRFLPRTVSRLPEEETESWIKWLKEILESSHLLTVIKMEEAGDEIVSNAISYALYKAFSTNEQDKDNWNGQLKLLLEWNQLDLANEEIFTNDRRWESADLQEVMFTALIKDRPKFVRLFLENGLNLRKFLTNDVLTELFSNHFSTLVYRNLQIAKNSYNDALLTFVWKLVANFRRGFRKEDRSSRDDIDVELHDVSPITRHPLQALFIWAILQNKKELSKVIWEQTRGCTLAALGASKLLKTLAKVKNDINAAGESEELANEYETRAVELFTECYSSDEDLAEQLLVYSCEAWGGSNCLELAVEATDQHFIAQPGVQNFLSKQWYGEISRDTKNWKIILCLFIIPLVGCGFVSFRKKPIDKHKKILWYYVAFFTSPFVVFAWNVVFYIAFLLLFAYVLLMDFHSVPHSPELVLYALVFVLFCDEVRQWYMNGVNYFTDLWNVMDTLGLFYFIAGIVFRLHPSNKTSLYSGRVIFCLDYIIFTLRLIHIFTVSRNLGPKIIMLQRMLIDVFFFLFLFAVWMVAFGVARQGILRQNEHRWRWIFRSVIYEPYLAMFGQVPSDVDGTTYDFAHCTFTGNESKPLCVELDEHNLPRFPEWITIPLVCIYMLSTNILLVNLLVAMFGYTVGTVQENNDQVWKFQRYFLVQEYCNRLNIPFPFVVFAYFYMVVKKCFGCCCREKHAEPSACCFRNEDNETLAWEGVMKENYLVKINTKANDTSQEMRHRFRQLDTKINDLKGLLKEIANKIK

Structure (SMILES): Cc1c(N(Cc2ccc(OC(F)(F)F)cc2)S(=O)(=O)c2ccc(-c3noc(=O)[nH]3)nc2)sc2ccccc12 [Compound 808]
inhibition at 0.2 µM: 102%

Structure (SMILES): Cc1c(N(Cc2ccc(OC(F)(F)F)cc2)S(=O)(=O)c2ccc(-c3nsc(=O)[nH]3)cc2)sc2ccccc12 [Compound 810, N-(3-Methyl-benzo[b]thiophen-2-yl)-N-(4-trifluoromethoxy-benzyl)-4-(5-oxo-4,5-dihydro-[1,2,4]thiadiazol-3-yl)-benzenesulfonamide]
inhibition at 0.2 µM: 102% | IC50: 1 nM

Structure (SMILES): Cc1c(N(CCCCC(F)(F)F)S(=O)(=O)c2ccc(-c3n[nH]c(=O)[nH]3)cc2)sc2ccccc12 [Compound 811, N-(3-Methyl-benzo[b]thiophen-2-yl)-N-(5,5,5-trifluoro-pentyl)-4-(5-oxo-4,5-dihydro-1H-[1,2,4]triazol-3-yl)-benzenesulfonamide]
inhibition at 0.2 µM: 103% | IC50: 3.7 nM

Structure (SMILES): Cc1c(N(CCCCC(F)(F)F)S(=O)(=O)c2ccc(-c3nn(C)c(=O)[nH]3)cc2)sc2ccccc12 [Compound 812, N-(3-Methyl-benzo[b]thiophen-2-yl)-N-(5,5,5-trifluoro-pentyl)-4-(1-methyl-5-oxo-4,5-dihydro-1H-[1,2,4]triazol-3-yl)-benzenesulfonamide]
inhibition at 0.2 µM: 103% | IC50: 7.6 nM

Structure (SMILES): O=S(=O)(c1ccccc1)N(Cc1ccc(F)c(C(F)(F)F)c1)c1sc2ncccc2c1Cl [Compound 813, N-(3-Chloro-thieno[2,3-b]pyridin-2-yl)-N-(4-fluoro-3-trifluoromethyl-benzyl)-benzenesulfonamide]
inhibition at 0.2 µM: 90% | IC50: 28 nM

Structure (SMILES): O=C(O)c1cccc(S(=O)(=O)N(Cc2ccc(F)c(C(F)(F)F)c2)c2sc3ncccc3c2Cl)c1 [Compound 814, N-(3-Chloro-thieno[2,3-b]pyridin-2-yl)-N-(4-fluoro-3-trifluoromethyl-benzyl)-3-carboxy-benzenesulfonamide]
inhibition at 0.2 µM: 80% | IC50: 138 nM

Structure (SMILES): O=C(O)c1ccc(S(=O)(=O)N(CCC(F)(F)F)c2sc3ncccc3c2Cl)cc1 [Compound 815, N-(3-Chloro-thieno[2,3-b]pyridin-2-yl)-N-(3,3,3-trifluoro-propyl)-4-carboxy-benzenesulfonamide]
inhibition at 0.2 µM: 44%

Structure (SMILES): COC(=O)c1cccc(S(=O)(=O)N(Cc2ccc(F)c(C(F)(F)F)c2)c2sc3ncccc3c2Cl)c1 [Compound 816, N-(3-Chloro-thieno[2,3-b]pyridin-2-yl)-N-(4-fluoro-3-trifluoromethyl-benzyl)-3-carbomethoxy-benzenesulfonamide]
inhibition at 0.2 µM: 15%

Structure (SMILES): O=S(=O)(c1ccccc1)N(CCCF)c1cc2ccccc2s1 [Compound 817, N-(Benzo[b]thiophen-2-yl)-N-(3-fluoro-propyl)-benzenesulfonamide]
inhibition at 0.2 µM: 80% | IC50: 73 nM

Structure (SMILES): Cc1c(N(CCF)S(=O)(=O)c2ccccc2)sc2ccccc12 [Compound 818, N-(2-Fluoro-ethyl)-N-(3-methyl-benzo[b]thiophen-2-yl)-benzenesulfonamide]
inhibition at 0.2 µM: 92% | IC50: 62 nM

Structure (SMILES): Cc1c(N(CCCF)S(=O)(=O)c2ccccc2)sc2ccccc12 [Compound 819, N-(3-Fluoro-propyl)-N-(3-methyl-benzo[b]thiophen-2-yl)-benzenesulfonamide]
inhibition at 0.2 µM: 98% | IC50: 21 nM

Structure (SMILES): COC(C)c1c(N(CCCF)S(=O)(=O)c2ccccc2)sc2ccccc12 (stereo not shown) [Compound 822, N-(3-Fluoro-propyl)-N-[3-(1-methoxy-ethyl)-benzo[b]thiophen-2-yl]-benzenesulfonamide]
inhibition at 0.2 µM: 97% | IC50: 49 nM

Structure (SMILES): COC(=O)c1ccc(S(=O)(=O)N(CCCF)c2sc3ccccc3c2C)cc1 [Compound 823, N-(3-Fluoro-propyl)-N-(3-methyl-benzo[b]thiophen-2-yl)-4-carbomethoxy-benzenesulfonamide]
inhibition at 0.2 µM: 102% | IC50: 22 nM

Structure (SMILES): Cc1c(N(CCCF)S(=O)(=O)c2ccc(C(=O)O)cc2)sc2ccccc12 [Compound 824, N-(3-Fluoropropyl)-N-(3-methyl-benzo[b]thiophen-2-yl)-4-carboxy-benzenesulfonamide]
inhibition at 0.2 µM: 98% | IC50: 38 nM

Structure (SMILES): Cc1c(N(Cc2ccccc2)S(=O)(=O)c2ccc(F)c(F)c2)sc2ccccc12 [Compound 825, N-(Benzyl)-N-(3-methyl-benzo[b]thiophen-2-yl)-3,4-difluoro-benzenesulfonamide]
inhibition at 0.2 µM: 89% | IC50: 25 nM

Now from value to compound:

inhibition at 0.2 µM: 97% | IC50: 24 nM
Structure (SMILES): Cc1c(N(Cc2ccc(F)cc2)S(=O)(=O)c2ccc(F)c(F)c2)sc2ccccc12 [Compound 826, N-(4-Fluoro-benzyl)-N-(3-methyl-benzo[b]thiophen-2-yl)-3,4-difluoro-benzenesulfonamide]

inhibition at 0.2 µM: 101% | IC50: 6.6 nM
Structure (SMILES): CCS(=O)(=O)N(Cc1ccc(F)c(OC)c1)c1sc2ccccc2c1C(C)O (stereo not shown) [Compound 827, N-(4-Fluoro-3-methoxybenzyl)-N-[3-(1-hydroxyethyl)-benzo[b]thiophen-2-yl]-ethanesulfonamide]

inhibition at 0.2 µM: 88% | IC50: 42.7 nM
Structure (SMILES): CCS(=O)(=O)N(Cc1ccc(F)c(OC)c1)c1cc2ccccc2s1 [Compound 828, N-(Benzo[b]thiophen-2-yl)-N-(4-fluoro-3-methoxy-benzyl)-ethanesulfonamide]

inhibition at 0.2 µM: 100% | IC50: 23 nM
Structure (SMILES): CCS(=O)(=O)N(Cc1ccnc(F)c1)c1sc2ccccc2c1C [Compound 829, N-(2-Fluoro-pyridin-4-ylmethyl)-N-(3-methyl-benzo[b]thiophen-2-yl)-ethanesulfonamide]

inhibition at 0.2 µM: 102% | IC50: 15 nM
Structure (SMILES): CC(C)(O)c1c(N(CCCF)S(=O)(=O)c2ccccc2)sc2ccccc12 [Compound 830, N-(3-Fluoropropyl)-N-[3-(1-hydroxy-1-methyl-ethyl)-benzo[b]thiophen-2-yl]-benzenesulfonamide]

inhibition at 0.2 µM: 91% | IC50: 50 nM
Structure (SMILES): Cc1c(N(CCCF)S(=O)(=O)c2ccc(F)c(F)c2)sc2ccccc12 [Compound 831, N-(3-Fluoro-propyl)-N-(3-methyl-benzo[b]thiophen-2-yl)-3,4-difluoro-benzenesulfonamide]

inhibition at 0.2 µM: 76% | IC50: 88 nM
Structure (SMILES): COCc1c(N(CCCF)S(=O)(=O)c2ccccc2)sc2ccccc12 [Compound 832, N-(3-Fluoro-propyl)-N-(3-methoxymethyl-benzo[b]thiophen-2-yl)-benzenesulfonamide]

inhibition at 0.2 µM: 102% | IC50: 13 nM
Structure (SMILES): CC(=O)c1c(N(CCCF)S(=O)(=O)c2ccccc2)sc2ccccc12 [Compound 833, N-(3-Acetyl-benzo[b]thiophen-2-yl)-N-(3-fluoro-propyl)-benzenesulfonamide]

inhibition at 0.2 µM: 87% | IC50: 123 nM
Structure (SMILES): O=S(=O)(c1cc(Br)ccc1Br)N(Cc1ccc(F)c(F)c1)c1sc2ccccc2c1CO [Compound 834, 2,5-Dibromo-N-(3,4-difluoro-benzyl)-N-(3-hydroxymethyl-benzo[b]thiophen-2-yl)-benzenesulfonamide]

inhibition at 0.2 µM: 89% | IC50: 55.1 nM
Structure (SMILES): CCS(=O)(=O)N(Cc1ccnc(F)c1)c1sc2ccccc2c1C(C)O (stereo not shown) [Compound 835, N-(2-Fluoropyridin-4-ylmethyl)-N-[3-(1-hydroxyethyl)-benzo[b]thiophen-2-yl]-ethanesulfonamide]

inhibition at 0.2 µM: 96% | IC50: 24 nM
Structure (SMILES): CCS(=O)(=O)N(Cc1ccnc(F)c1)c1sc2ccccc2c1C(C)(C)O [Compound 836, N-(2-Fluoro-pyridin-4-ylmethyl)-N-[3-(1-hydroxy-1-methyl-ethyl)-benzo[b]thiophen-2-yl]-ethanesulfonamide]

inhibition at 0.2 µM: 103% | IC50: 15 nM
Structure (SMILES): CCS(=O)(=O)N(Cc1ccc(F)c(OC)c1)c1sc2ccccc2c1C(C)=O [Compound 837, N-(3-Acetyl-benzo[b]thiophen-2-yl)-N-(4-fluoro-3-methoxy-benzyl)-ethanesulfonamide]

inhibition at 0.2 µM: 101%
Structure (SMILES): CCS(=O)(=O)N(Cc1ccc(F)c(OC)c1)c1sc2ccccc2c1C(C)(C)O [Compound 838, N-(4-Fluoro-3-methoxybenzyl)-N-[3-(1-hydroxy-1-methyl-ethyl)-benzo[b]thiophen-2-yl]-ethanesulfonamide]

inhibition at 0.2 µM: 101% | IC50: 15.9 nM
Structure (SMILES): CCS(=O)(=O)N(Cc1ccc(F)c(C(F)(F)F)c1)c1sc2ccccc2c1C(C)OC (stereo not shown) [Compound 839, N-(4-Fluoro-3-trifluoromethyl-benzyl)-N-[3-(1-methoxy-ethyl)-benzo[b]thiophen-2-yl]-ethanesulfonamide]

inhibition at 0.2 µM: 71.1% | IC50: 98.1 nM
Structure (SMILES): CCS(=O)(=O)N(Cc1c(F)cnc(F)c1F)c1sc2ccccc2c1C [Compound 840, N-(3-Methyl-benzo[b]thiophen-2-yl)-N-(2,3,5-trifluoro-pyridin-4-ylmethyl)-ethanesulfonamide]

inhibition at 0.2 µM: 55%
Structure (SMILES): Cc1c(N(CCF)S(=O)(=O)c2ccc(F)c(F)c2)sc2ccccc12 [Compound 841, N-(2-Fluoro-ethyl)-N-(3-methyl-benzo[b]thiophen-2-yl)-3,4-difluoro-benzenesulfonamide]

inhibition at 0.2 µM: 63%
Structure (SMILES): COC(=O)c1ccc(S(=O)(=O)N(CCCF)c2cc3ccccc3s2)cc1 [Compound 842, N-(Benzo[b]thiophen-2-yl)-N-(3-fluoro-propyl)-4-carbomethoxy-benzenesulfonamide]

inhibition at 0.2 µM: 31%
Structure (SMILES): COC(=O)c1ccc(S(=O)(=O)N(CCF)c2cc3ccccc3s2)cc1 [Compound 843, N-(Benzo[b]thiophen-2-yl)-N-(2-fluoro-ethyl)-4-carbomethoxy-benzenesulfonamide]

inhibition at 0.2 µM: 31%
Structure (SMILES): O=S(=O)(c1ccccc1)N(CCF)c1cc2ccccc2s1 [Compound 844, N-(Benzo[b]thiophen-2-yl)-N-(2-fluoro-ethyl)-benzenesulfonamide]

inhibition at 0.2 µM: 24%
Structure (SMILES): Cc1c(N(Cc2ccc(F)cc2)S(=O)(=O)c2ccc(OCc3ccc(F)cc3)c(F)c2)sc2ccccc12 [Compound 845, 3-Fluoro-N-(4-fluoro-benzyl)-4-(4-fluoro-benzyloxy)-N-(3-methyl-benzo[b]thiophen-2-yl)-benzenesulfonamide]
